Consider two compounds from patent US4552965A, “2α, 3β, 4aβ, 8aα-Decahydro-3-(4-phenyl-1-piperidinyl)-2-naphthalenol” (University of California, priority 1984, dated 1985).

The test relates to Torpedo californica electric organ synpatic vesicles. Description: Inhibition of ATP-dependent uptake of radioactive ACh by purified Torpedo electric organ synaptic vesicles in vitro. The class given is biochemical. The conditions noted are these: for IC50: purified Torpedo vesicles, room temperature, approximately 30 minutes, neutral pH, approximately 5 mM ATP, 50 μM radioactive ACh, read-out: IC50 (inhibition of vesicular ACh uptake). As for the experimental part: For example, purified Torpedo californica electric organ synpatic vesicles uptake ACh in vitro in the presence of ATP. Such vesicles are incubated at room temperature for approximately 30 minutes in isosmotic buffer at neutral PH, the buffer containing approximately 5 mM ATP and 50 μM radioactive ACh, and the radioactivity accumulated by the washed vesicles is then measured by liquid scintillation spectroscopy. By varying the concentration of the compound to be tested to determine its inhibitory effect on ACh uptake, a dose response curve can be deduced including the IC50.

SMILES strings stand for the structures.

As for `O[C@@H]1C[C@H]2CCCC[C@@H]2C[C@H]1N1CCC(c2ccccc2)CC1` (relative stereo) [DPPN, (2α, 3β, 4aβ, 8aα)-decahydro-3-(4-phenyl-1-piperidinyl)-2-naphthalenol], the IC50 is 10 µM. The “times more effective than AH 5183 in preventing ACh uptake by the vesicles” value (relative to AH 5183) is “approximately four”.
Take `OC1CCCCC1N1CCC(c2ccccc2)CC1` (stereo not shown) [AH 5183, 2-(4-Phenylpiperidino)-cyclohexanol]: the half-inhibitory concentration (IC50) is 40 µM. Further, the “concentration needed relative to DPPN for comparable blockade of vesicular uptake of ACh” value (relative to DPPN) is “at least four”.
